{"source": "patent US20050026833A1", "about": "“PSP-94: use for treatment of hypercalcemia and bone metastasis” (priority 2001, published 2005)", "molecules": {"B1": {"name": "PSP-94: prostate secretory protein of 94 amino acids; native human seminal plasma PSP-94 (protein)", "chain": "SCYFIPNEGVPGDSTRKCMDLKGNKHPINSEWQTDNCETCTCYETEISCCTLVSTPVGYDKDNCQRIFKKEDCKYIVVEKKDPKKTCSVSEWII"}}, "key": {"[1]": {"system": "Mat Ly Lu-PTHrP skeletal metastasis", "assay": "Bone histomorphometry of vertebrae (tumor volume to bone volume)", "assay_type": "in vivo, male Copenhagen rats", "method": "Alternatively, cell pellets (10×10^3 cells) were resuspended in 100ul saline and injected using 1 ml syringes into the left ventricle of rats anaesthetised with ketamine/xylazine cocktail. […] The time after tumor cell inoculation which was required to develop hind limb paralysis (an index of spinal cord compression due to lumbar vertebrae metastasis) was determined and percentage of starting number of animals developing hind-limb paralysis was plotted. […]\n(§1) Computer-Assisted Image Analysis. Computer-assisted image analysis was carried out to quantify PTHrP immunostaining and determination of % TV/BV in the vertebral sections. […] The threshold was set by determining the positive staining of control sections and was used to automatically analyze all recorded images of all samples that were stained in the same session under identical conditions. The area of stained regions was calculated automatically by the software in each microscopic field. Pixel counts of the immunoreaction product were calculated automatically and were given as total density of the integrated immunostaining over a given area. […]"}, "PTHrP": {"system": "PTHrP", "assay": "PTHrP immunohistochemistry of skeletal metastasis (vertebrae)", "assay_type": "in vivo, male Copenhagen rats", "conditions": "100.0 ug/kg PCK3145, day 10, vs vehicle", "method": "For example, vertebral columns were fixed and decalcified for a period of 3 weeks. Vertebral column samples were dewaxed in xylene, and rehydrated through a graded alcohol series (100%-70%). For determining the level of expression of PTHrP by skeletal metastasis, the sections were incubated in 1% normal goat serum (Vector Laboratories Inc., Burlingame, Calif., USA) for 30 min at room temperature before treatment with the primary antibody (polyclonal antiserum against PTHrP (1-34) from rabbit) at 1: 200 dilution overnight at 4° C. Biotinylated goat anti-rabbit IgG (Vector Laboratories Inc., Burlingame, Calif., USA) was used as the secondary antibody at 1:200 for 30 min at room temperature. […]\nas §1"}, "Mat Ly Lu-PTHrP cells": {"system": "Mat Ly Lu-PTHrP cells", "assay": "DNA fragmentation in vitro (agarose gel)", "assay_type": "cell-based, rat", "conditions": "PSP-94 10.0 ug/ml, after 72 hours of treatment", "method": "In order to investigate the underlying molecular mechanism of action of PSP-94 in reducing tumor growth Mat Ly Lu-PTHrP cells were cultured in the presence of PSP-94 (10.0 ug/ml) or vehicle alone for different time intervals. Genomic DNA was collected from cells cultured in the presence of vehicle alone or PSP-94. Briefly, for DNA fragmentation, Mat Ly Lu-PTHRP cells were plated in 6 well plates (Falcon Plastics, Oxnard, Calif.). Cells were treated with PSP-94 (10.0 ug/ml) for up to 72 hours. DNA from treated cells incubated with PSP-94 and cells treated with vehicle alone was collected using a Phenol:Choloroform:lsoamyl alcohol solution (50:48:2). Equal amounts of DNA were subjected to gel electrophoresis on a 2% agarose gel. DNA fragmentation was visualised by UV light using a transilluminator. More particularly, results presented in FIG. 14A show Mat Ly Lu-PTHrP cells cultured in the presence of vehicle alone or PSP-94 (10.0 ug/ml) for up to […]. DNA was isolated and run in an agarose gel, as described above."}}, "data": [{"molecule": "E W Q T D N C E T C T C Y E T (EWQTDNCETCTCYET; PCK3145 (polypeptide 31-45))", "values": [{"measurement": "ratio of tumor volume to bone volume (TV/BV)", "setting": "[1]; 100.0 ug/kg PCK3145, day 10 post inoculation, vs vehicle", "value": "significant decrease"}, {"measurement": "trabecular and cortical bone destruction with compression of the spinal cord", "setting": "[1]; 100.0 ug/kg/day PCK3145, day 10, vs vehicle", "value": "significantly less"}, {"measurement": "PTHrP staining in Mat Ly Lu-PTHrP cells of the vertebral column (total density)", "setting": "PTHrP", "value": "significantly lower"}]}, {"molecule": "B1", "values": [{"measurement": "DNA fragmentation", "setting": "Mat Ly Lu-PTHrP cells", "value": "marked DNA fragmentation"}]}]}
